Test results as given in patent US12514900B2, “Method to identify responders to osteoarthritis therapeutics” (OrthoTrophix, Inc., priority 2020, dated 2026).
Where no end group is shown, it is not given here.

Key:
subjects with knee OA [1] = settings: cited from earlier work
human and rat bone cells = settings: human and rat/murine orthologues; cited from earlier work
[2] = molecular target: integrin αVβ3 expressed by osteocytes (Homo sapiens, UniProt P05106+P06756); settings: cited from earlier work
Chain of integrin αVβ3 expressed by osteocytes (P06756 31-889 limits assumed): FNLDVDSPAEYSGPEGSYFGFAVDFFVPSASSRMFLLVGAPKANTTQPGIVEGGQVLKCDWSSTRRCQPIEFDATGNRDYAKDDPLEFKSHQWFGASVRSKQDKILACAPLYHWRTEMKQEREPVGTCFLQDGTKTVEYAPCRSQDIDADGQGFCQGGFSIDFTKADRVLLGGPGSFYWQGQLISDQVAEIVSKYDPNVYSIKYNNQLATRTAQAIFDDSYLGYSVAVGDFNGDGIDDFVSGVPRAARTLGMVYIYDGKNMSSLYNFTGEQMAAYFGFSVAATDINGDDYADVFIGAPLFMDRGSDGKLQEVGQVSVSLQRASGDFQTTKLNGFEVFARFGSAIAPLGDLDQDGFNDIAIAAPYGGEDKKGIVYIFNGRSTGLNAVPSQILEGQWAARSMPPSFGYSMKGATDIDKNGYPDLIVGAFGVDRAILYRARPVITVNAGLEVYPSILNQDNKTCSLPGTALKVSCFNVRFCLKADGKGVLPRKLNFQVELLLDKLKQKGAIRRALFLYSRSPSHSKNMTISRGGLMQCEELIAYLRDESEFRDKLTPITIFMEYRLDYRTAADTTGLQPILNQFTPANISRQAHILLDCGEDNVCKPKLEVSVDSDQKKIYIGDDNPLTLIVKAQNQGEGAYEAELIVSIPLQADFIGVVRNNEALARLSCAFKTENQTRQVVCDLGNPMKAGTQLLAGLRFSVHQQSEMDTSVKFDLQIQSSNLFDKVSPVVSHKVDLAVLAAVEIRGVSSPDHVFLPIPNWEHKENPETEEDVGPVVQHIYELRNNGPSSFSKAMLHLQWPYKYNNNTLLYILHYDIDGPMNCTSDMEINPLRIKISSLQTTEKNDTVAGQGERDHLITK
Chain of integrin αVβ3 expressed by osteocytes (P06756 891-1048 limits assumed): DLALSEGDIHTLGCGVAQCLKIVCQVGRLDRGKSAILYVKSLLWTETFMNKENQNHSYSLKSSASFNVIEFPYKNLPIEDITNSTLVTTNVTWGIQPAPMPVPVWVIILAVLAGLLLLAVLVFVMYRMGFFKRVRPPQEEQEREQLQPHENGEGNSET
Chain of integrin αVβ3 expressed by osteocytes (P05106 27-788): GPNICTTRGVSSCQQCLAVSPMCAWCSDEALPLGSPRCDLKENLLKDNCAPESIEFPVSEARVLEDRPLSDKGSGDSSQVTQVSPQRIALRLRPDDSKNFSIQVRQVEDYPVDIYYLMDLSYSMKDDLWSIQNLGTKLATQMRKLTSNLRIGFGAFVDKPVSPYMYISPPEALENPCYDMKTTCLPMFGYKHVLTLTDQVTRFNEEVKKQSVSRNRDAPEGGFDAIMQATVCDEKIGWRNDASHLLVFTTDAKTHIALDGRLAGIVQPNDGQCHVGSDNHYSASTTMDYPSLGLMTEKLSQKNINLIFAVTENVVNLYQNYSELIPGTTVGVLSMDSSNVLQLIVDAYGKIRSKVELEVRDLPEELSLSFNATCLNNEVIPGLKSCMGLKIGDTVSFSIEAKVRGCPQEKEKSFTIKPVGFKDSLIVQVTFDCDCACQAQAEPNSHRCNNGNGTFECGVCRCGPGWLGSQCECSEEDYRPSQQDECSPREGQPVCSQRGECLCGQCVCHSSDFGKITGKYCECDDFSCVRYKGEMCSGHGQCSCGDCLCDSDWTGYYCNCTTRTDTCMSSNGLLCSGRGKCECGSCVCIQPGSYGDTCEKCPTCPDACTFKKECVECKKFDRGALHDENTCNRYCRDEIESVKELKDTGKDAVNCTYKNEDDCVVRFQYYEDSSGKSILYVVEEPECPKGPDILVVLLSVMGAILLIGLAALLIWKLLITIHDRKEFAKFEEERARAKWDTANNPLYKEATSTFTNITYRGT

[3] = tested on: subjects with bilateral knee osteoarthritis; settings: human, in vivo
Experimental: Eighteen (18) orthopedic, rheumatologic and family practice centers in the U.S. participated in the study.
On the first dosing day, the randomized subjects were assessed by physical examinations and vital signs. Further, they completed the Knee injury and Osteoarthritis Outcome Score (KOOS), which includes the Western Ontario and McMaster Universities Osteoarthritis Index (WOMAC). The KOOS questionnaire assesses knee-specific activities of daily living, sports and recreation, knee-related quality of life, other symptoms such as stiffness, and knee pain. […] After assessments were completed, subjects received one intra-articular injection in each knee, with each injection prepared from the vial(s) marked for that knee. […] Subjects were monitored for adverse events during the injections and for a few hours after the injections. Vital signs were also monitored after the injections.
On the 7th, 14th, and 21st days after the first dosing, subjects received the second, third, and fourth (last) dosing of the same study materials, respectively. Safety and adverse event assessments were obtained as on the first dosing day.
Subjects returned to their respective study sites at 3, 6 and 12 months after the first dosing day for follow-up evaluations. In addition, the study sites monitored the subject's condition through telephone contact 9 months after the first dosing day. During the 3, 6, and 12 months post-treatment, subjects were evaluated on site with physical examinations, vital signs, serum chemistries, as well as completing patient-reported outcomes including the KOOS. Adverse events and concomitant medications were recorded. MRIs of both knees were obtained during the 6 and 12-month visits.

subjects with knee OA [4] = settings: cited from earlier work; remark: listed apart in the source

Molecule: O=P(O)(O)C(O)(Cc1cccnc1)P(=O)(O)O [risedronate]
- Effects on pain (subjects with knee OA [1]; largest study, n=2483 (Bingham 2006)): favoring placebo over active drug

Molecule: N#Cc1c(N(CC(=O)[O-])CC(=O)[O-])sc(C(=O)[O-])c1CC(=O)[O-].[Sr+2].[Sr+2] [strontium ranelate]
- Risk of myocardial infarction (subjects with knee OA [1]; human, in vivo): increase the risk of myocardial infarction

Molecule: PDLLVRGDNDVPPFSGDGQHFMH [SEQ ID No: 14]
- Biological activities in bone cells of the other species (human and rat bone cells): interchangeably show biological activities in the bone cells of the other species

Molecule: PDLQERGDNDISPFSGDGQPFKD [SEQ ID No: 12]
- Binding to integrin αVβ3 [2]: selectively bind to integrin αVβ3

Molecule: TDLQERGDNDISPFSGDGQPFKD [SEQ ID No: 10]
- Safety and tolerability [3]: safe and well tolerated
- Severe adverse events related to the peptide [3]: no severe adverse events
- Treatment-related adverse events [3]: mild or moderate, transient

B1: Fibroblast Growth Factor-18 (protein, UniProt O76093 28-207, looked up)
Fibroblast growth factor 18: EENVDFRIHVENQTRARDDVSRKQLRLYQLYSRTSGKHIQVLGRRISARGEDGDKYAQLLVETDTFGSQVRIKGKETEFYLCMNRKGKLVGKPDGTSKECVFIEKVLENNYTALMSAKYSGWYVGFTKKGRPRKGPKTRENQQDVHFMKRYPKGQPELQKPFKYTTVTKRSRRIRPTHPA
notes: growth factor tested for cartilage regeneration in knee OA
- Clinical outcomes such as knee function or pain vs placebo (subjects with knee OA [4]): no significant improvement
- Tibiofemoral cartilage thickness (subjects with knee OA [4]): small but statistically significant increase
